Legend:
[1] = target: ROCK 1 (Homo sapiens, UniProt Q13464); experiment: In vitro Rho kinase inhibitory activity assay (ADP-Glo), Rho kinase 1; format: biochemical; conditions: Ki by Cheng-Prusoff from IC50; 10 μM ATP, 25° C., expressed as range of activity
Description: (§1) The effectiveness of compounds of the present invention to inhibit Rho kinase activity can be determined in a 10 μl assay containing 40 mM Tris pH7.5, 20 mM MgCl2 0.1 mg/mi BSA, 50 μM DTT and 2.5 μM peptide substrate (Myelin Basic Protein) using an ADP-Glo kit (Promega). Compounds were dissolved in DMSO such that the final concentration of DMSO was 1% in the assay. All reactions/incubations are performed at 25° C. Compound (2 ul) and either Rho kinase 1 or 2 (4 μl) were mixed and incubated for 30 mins. Reactions were initiated by addition of ATP (4 μl) such that the final concentration of ATP in the assay was 10 μM. After a 1 hour incubation 10 μl of ADP-Glo Reagent was added and after a further 45 minute incubation 20 ul of Kinase Detection Buffer was added and the mixture incubated for a further 30 minutes. The luminescent signal was measured on a luminometer. […] Compounds were tested in dose-response format and the inhibition of kinase activity was calculated at each concentration of compound. To determine the IC50 (concentration of compound required to inhibit 50% of the enzyme activity) data were fit to a plot of % inhibition vs Log10 compound concentration using a sigmoidal fit with a variable slope and fixing the maximum to 100% and the minimum to 0%. To determine the Ki values the Cheng-Prusoff equation was utilized (Ki=IC50/(1+[S]/Km).

[2] = target: ROCK 2 (Homo sapiens, UniProt O75116); experiment: In vitro Rho kinase inhibitory activity assay (ADP-Glo), Rho kinase 2; format: biochemical; conditions: Ki by Cheng-Prusoff from IC50; 10 μM ATP, 25° C., expressed as range of activity
Description: as §1

Chain of ROCK 2 (O75116 whole entry): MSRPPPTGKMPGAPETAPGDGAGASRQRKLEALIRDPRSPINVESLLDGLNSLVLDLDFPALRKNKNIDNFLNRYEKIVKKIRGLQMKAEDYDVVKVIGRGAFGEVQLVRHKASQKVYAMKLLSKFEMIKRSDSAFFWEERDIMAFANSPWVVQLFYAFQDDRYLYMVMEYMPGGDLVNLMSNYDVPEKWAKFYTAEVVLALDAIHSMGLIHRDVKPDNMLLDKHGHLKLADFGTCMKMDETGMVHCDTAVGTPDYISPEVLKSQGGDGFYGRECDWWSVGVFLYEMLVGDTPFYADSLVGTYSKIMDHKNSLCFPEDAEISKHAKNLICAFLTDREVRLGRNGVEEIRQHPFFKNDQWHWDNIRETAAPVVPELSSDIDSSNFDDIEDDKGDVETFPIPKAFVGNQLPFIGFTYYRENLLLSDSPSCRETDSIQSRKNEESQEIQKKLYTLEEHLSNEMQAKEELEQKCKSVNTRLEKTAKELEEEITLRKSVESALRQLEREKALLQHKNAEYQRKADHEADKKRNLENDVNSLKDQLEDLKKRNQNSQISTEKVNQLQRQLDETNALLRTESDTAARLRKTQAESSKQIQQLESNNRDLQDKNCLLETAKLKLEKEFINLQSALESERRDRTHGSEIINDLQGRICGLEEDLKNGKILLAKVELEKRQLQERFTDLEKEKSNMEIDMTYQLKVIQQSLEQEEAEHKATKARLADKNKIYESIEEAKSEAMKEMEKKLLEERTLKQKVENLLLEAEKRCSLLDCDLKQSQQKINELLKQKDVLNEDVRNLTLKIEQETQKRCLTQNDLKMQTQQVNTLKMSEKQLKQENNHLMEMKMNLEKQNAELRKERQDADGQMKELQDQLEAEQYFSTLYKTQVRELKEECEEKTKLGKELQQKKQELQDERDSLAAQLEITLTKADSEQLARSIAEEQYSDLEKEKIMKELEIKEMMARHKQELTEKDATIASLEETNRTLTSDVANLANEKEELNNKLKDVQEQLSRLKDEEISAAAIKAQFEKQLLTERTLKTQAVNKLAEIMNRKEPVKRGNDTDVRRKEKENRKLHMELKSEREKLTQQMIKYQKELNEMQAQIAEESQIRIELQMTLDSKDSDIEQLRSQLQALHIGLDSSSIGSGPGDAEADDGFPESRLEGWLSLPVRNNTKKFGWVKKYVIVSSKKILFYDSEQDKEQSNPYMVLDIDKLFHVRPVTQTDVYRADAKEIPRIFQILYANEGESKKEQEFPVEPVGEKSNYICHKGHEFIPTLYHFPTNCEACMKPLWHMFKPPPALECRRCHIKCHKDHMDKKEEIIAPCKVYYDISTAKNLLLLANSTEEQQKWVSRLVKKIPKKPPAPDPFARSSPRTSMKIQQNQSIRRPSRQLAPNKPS
Chain of ROCK 1 (Q13464 whole entry): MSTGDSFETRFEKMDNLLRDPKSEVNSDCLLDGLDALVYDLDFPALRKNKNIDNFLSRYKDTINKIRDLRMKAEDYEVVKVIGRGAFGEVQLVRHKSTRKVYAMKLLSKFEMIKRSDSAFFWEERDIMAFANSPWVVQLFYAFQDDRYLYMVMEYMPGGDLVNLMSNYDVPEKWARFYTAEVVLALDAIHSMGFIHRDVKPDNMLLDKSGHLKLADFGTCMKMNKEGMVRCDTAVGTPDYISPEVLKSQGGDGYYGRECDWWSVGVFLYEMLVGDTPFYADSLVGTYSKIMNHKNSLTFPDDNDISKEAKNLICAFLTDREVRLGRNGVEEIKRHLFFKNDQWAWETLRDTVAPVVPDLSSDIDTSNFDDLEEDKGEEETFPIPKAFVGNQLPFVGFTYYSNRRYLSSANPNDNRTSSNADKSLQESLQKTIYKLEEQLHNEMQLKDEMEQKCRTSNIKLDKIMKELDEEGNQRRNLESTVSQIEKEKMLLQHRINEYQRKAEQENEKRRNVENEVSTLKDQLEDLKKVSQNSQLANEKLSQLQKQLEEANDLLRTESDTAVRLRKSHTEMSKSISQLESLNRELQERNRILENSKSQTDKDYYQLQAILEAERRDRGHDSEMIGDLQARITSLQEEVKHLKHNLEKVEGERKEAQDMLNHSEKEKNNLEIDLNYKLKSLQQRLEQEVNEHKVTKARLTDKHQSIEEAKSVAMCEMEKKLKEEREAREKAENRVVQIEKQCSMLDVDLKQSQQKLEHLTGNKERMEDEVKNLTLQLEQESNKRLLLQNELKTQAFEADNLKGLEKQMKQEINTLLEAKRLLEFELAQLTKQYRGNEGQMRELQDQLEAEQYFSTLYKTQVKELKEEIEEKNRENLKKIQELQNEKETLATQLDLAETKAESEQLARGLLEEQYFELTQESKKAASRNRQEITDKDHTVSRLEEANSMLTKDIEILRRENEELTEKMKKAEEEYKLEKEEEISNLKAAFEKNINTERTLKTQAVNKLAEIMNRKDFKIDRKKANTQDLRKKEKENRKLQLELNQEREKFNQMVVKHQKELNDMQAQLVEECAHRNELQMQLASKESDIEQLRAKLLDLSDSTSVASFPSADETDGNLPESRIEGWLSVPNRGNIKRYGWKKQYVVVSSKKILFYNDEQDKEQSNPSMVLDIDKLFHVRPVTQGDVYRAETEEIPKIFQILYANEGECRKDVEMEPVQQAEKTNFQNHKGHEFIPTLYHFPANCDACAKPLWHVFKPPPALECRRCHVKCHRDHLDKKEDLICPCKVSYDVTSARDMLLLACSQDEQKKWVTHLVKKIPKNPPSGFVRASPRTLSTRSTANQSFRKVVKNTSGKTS

SMILES | Ki [1] | Ki [2]
c1ccc(CNc2cc(-c3c[nH]c4nccc(Oc5ccc6c(c5)CNCC6)c34)ncn2)cc1 [Example 25, N-benzyl-6-(4-((1,2,3,4-tetrahydroisoquinolin-7-yl)oxy)-1H-pyrrolo[2,3-b]pyridin-3-yl)pyrimidin-4-amine] | < 3 nM | < 3 nM
O=C(Cn1cc(-c2c[nH]c3nccc(Oc4ccc5c(c4)CNCC5)c23)nn1)NCc1ccccc1 [Example 12, N-benzyl-2-(4-(4-((1,2,3,4-tetrahydroisoquinolin-7-yl)oxy)-1H-pyrrolo[2,3-b]pyridin-3-yl)-1H-1,2,3-triazol-1-yl)acetamide] | 3 to 30 nM | < 3 nM
c1ccc(CNc2cc(-c3c[nH]c4ncnc(Oc5ccc6c(c5)CNCC6)c34)ccn2)cc1 [Example 56, N-benzyl-4-(4-((1,2,3,4-tetrahydroisoquinolin-7-yl)oxy)-7H-pyrrolo[2,3-d]pyrimidin-5-yl)pyridin-2-amine] | 3 to 30 nM | < 3 nM
NCc1ccc(Oc2ccnc3[nH]cc(-c4cnc(NC(=O)Cc5ccccc5)s4)c23)cc1 [Example 34, N-(5-(4-(4-(aminomethyl)phenoxy)-1H-pyrrolo[2,3-b]pyridin-3-yl)thiazol-2-yl)-2-phenylacetamide] | 3 to 30 nM | < 3 nM
c1ccc(CNc2cccc(-c3c[nH]c4nccc(Oc5ccc6c(c5)CNCC6)c34)n2)cc1 [Example 27, N-benzyl-6-(4-((1,2,3,4-tetrahydroisoquinolin-7-yl)oxy)-1H-pyrrolo[2,3-b]pyridin-3-yl)pyridin-2-amine] | > 30 nM | > 30 nM

The next lines start with the values.

Ki [1] | Ki [2] | SMILES
< 3 nM | < 3 nM | O=C(CN1CCCCC1)Nc1cc(-c2c[nH]c3nccc(Oc4ccc5c(c4)CNCC5)c23)ccn1 [Example 43, 2-(piperidin-1-yl)-N-(4-(4-((1,2,3,4-tetrahydroisoquinolin-7-yl)oxy)-1H-pyrrolo[2,3-b]pyridin-3-yl)pyridin-2-yl)acetamide]
3 to 30 nM | < 3 nM | O=C(Nc1cc(-c2c[nH]c3nccc(Oc4ccc5c(c4)CNCC5)c23)ccn1)C1CC1 [Example 39, N-(4-(4-((1,2,3,4-tetrahydroisoquinolin-7-yl)oxy)--1H-pyrrolo[2,3-b]pyridin3-yl)pyridin-2-yl)cyclopropanecarboxamide]
< 3 nM | < 3 nM | CN(C(=O)Nc1cc(-c2c[nH]c3nccc(Oc4ccc5c(c4)CNCC5)c23)ccn1)C1CCCCC1 [Example 47, 1-cyclohexyl-1-methyl-3-(4-(4-((1,2,3,4-tetrahydroisoquinolin-7-yl)oxy)-1H-pyrrolo[2,3-b]pyridin-3-yl)pyridin-2-yl)urea]
3 to 30 nM | < 3 nM | CN(C(=O)Nc1cc(-c2c[nH]c3nccc(Oc4ccc5c(c4)CNCC5)c23)ccn1)C1CCOCC1 [Example 48, 1-methyl-1-(tetrahydro-2H-pyran-4-yl)-3-(4-(4-((1,2,3,4-tetrahydroisoquinolin-7-yl)oxy)-1H-pyrrolo[2,3-b]pyridin-3-yl)pyridin-2-yl)urea]
3 to 30 nM | < 3 nM | O=C(Nc1cc(-c2c[nH]c3nccc(Oc4ccc5c(c4)CNCC5)c23)ncn1)c1ccccc1 [Example 50, N-(6-(4-((1,2,3,4-tetrahydroisoquinolin-7-yl)oxy)-1H-pyrrolo[2,3-b]pyridin-3-yl)pyrimidin-4-yl)benzamide]
< 3 nM | < 3 nM | c1cc(-c2c[nH]c3nccc(Oc4ccc5c(c4)CNCC5)c23)ccn1 [Example 1, 7-((3-(pyridin-4-yl)-1H-pyrrolo[2,3-b]pyridin-4-yl)oxy)-1,2,3,4-tetrahydroisoquinoline]
3 to 30 nM | < 3 nM | C[C@H](Nc1cc(-c2c[nH]c3nccc(Oc4ccc5c(c4)CNCC5)c23)ncn1)c1ccccc1 [Example 54, (S)-N-(1-phenylethyl)-6-(4-((1,2,3,4-tetrahydroisoquinolin-7-yl)oxy)-1H-pyrrolo[2,3-b]pyridin-3-yl)pyrimidin-4-amine]

Reference: patent US20210253568A1, “AZAINDOLE DERIVATIVES AS RHO-KINASE INHIBITORS” (CHIESI FARMACEUTICI S.p.A., priority 2018, published 2021)
